Assay results published in patent US7973219B2, “Method for producing transgenic plants resistant to weed control compounds which disrupt the porphyrin pathways of plants” (Sumitomo Chemical Company, Limited, priority 1998, dated 2011).
Like-named read-outs stand apart in the source and are kept apart here.

How the values were obtained:
[1] = tested on: tobacco into which bchH gene was introduced; test: Leaf piece chlorophyll test, tobacco into which bchH gene was introduced; type: in vivo; conditions: Nicotiana tabacum, read-out: Resistant level to test compound; for activity at 0.3 ppm: 0.30 ppm
Description: (§1) Then, according to the method described in Manual for Gene Manipulation of Plant (by Hirofumi UCHIMIYA, Kodan-sha Scientific, 1992), the gene was introduced into tobacco. Agrobacterium strain bearing plasmid pBIBCH was cultured at 28° C. overnight in LB medium and then leaf pieces of tobacco cultured sterilely were dipped in the liquid culture medium. The leaf pieces were cultured at room temperature for 2 days in Murashige-Skoog medium (MS-medium, described in Murasige T. and Skoog F., Physiol. Plant. (1962) 15, p 473) containing 0.8% agar, 0.1 mg/liter naphthalene acetic acid and 1.0 mg/liter benzyl aminopurine. Then, the leaf pieces were washed with sterilized water and cultured for 7 days on MS medium containing 0.8% agar, 0.1 mg/liter naphthalene acetic acid, 1.0 mg/liter benzyl aminopurine and 500 μg/ml cefotaxime. The leaf pieces were transplanted onto MS medium containing 0.8% agar, 0.1 mg/liter naphthalene acetic acid, 1.0 mg/liter benzyl aminopurine, 500 μg/ml cefotaxime and 100 μg/ml kanamycin (hereinafter referred to as selective MS medium) and cultured on the medium continuously for 4months with transplanting the tobacco leaf pieces onto fresh selective MS medium every 1 month. During culture, stem-leaf differentiated shoots were appeared from the tobacco leaf pieces, these shoots were transplanted to MS medium containing 0.8% agar, 300 μg/ml cefotaxime and 50 μg/ml kanamycin to induce roots to obtain regenerated plants. The resultant regenerated plant was transplanted and cultured on MS medium 0.8% agar and 50 μg/ml kanamycin to obtain tobacco plant into which bchH gene was introduced. Similarly, tobacco leaf pieces were infected with Agrobacterium strain bearing pNO to obtain regenerated plant from the tobacco leaf pieces and tobacco plant (hereinafter referred to as control recombinant tobacco).
(§2) The tobacco leaves into which bchH gene was introduced and control recombinant tobacco leaves obtained in Example 5 were collected and each leaf was divided into the right and left equivalent pieces along the main vein, respectively. To one piece was applied an aqueous solution containing 0.3 ppm PPO inhibitory-type herbicidal compound of Structure 8, while, to the other piece was not applied the compound. These leaf pieces were placed on MS medium containing 0.8% agar and allowed to stand at room temperature for 7 days in light place. Then, each leaf piece was ground with pestle and mortar in 5 ml of 80% aqueous acetone solution to extract chlorophyll. The extract liquid was diluted with 80% aqueous acetone solution and the absorbance was measured at 750 nm, 663 nm and 645 nm to calculate total chlorophyll content according to the method described by Macknney G., J. Biol. Chem. (1941) 140, p 315. The results obtained from 4 clones of tobacco into which bchH gene was introduced (BCH1 to 4) and control recombinant tobacco is shown in Table 4. In the table, the resistant level to the herbicidal compound was represented by percentages of the total chlorophyll content of leaf pieces treated with herbicidal compound to that of untreated leaf pieces.
(§3) The tobacco clone into which bchH gene was introduced and control recombinant tobacco were also treated in the same manner with the solution containing PPO inhibitory-type herbicidal compound represented by the above Structure 3, 7, 10, 11, 13, 17, 23, 24, 25, 27, 28, 30 or 35, and the resistant level to each herbicidal compound was measured. In the table, the resistant levels to the herbicidal compound were represented by percentages of the total chlorophyll content of leaf pieces treated with the herbicidal compound to that of untreated leaf pieces.

[2] = tested on: control recombinant tobacco; test: Leaf piece chlorophyll test, control recombinant tobacco; type: in vivo; conditions: Nicotiana tabacum, read-out: Resistant level to test compound; for activity at 0.3 ppm: 0.30 ppm
Description: as §1, §2, §3
The level of resistance to PPO inhibitory type herbicidal compound represented by Structure 8 was confirmed quantitatively by testing tobacco into which the gene encoding the variant soybean PPO prepared in Example 13 was introduced according to the same manner as in Example 6. […]

[3] = bchH recombinant tobacco, treated vs untreated leaf pieces, Table 5
[4] = control recombinant tobacco, treated vs untreated leaf pieces, Table 5

Compound | activity at 10 ppm [1, 3] | activity at 10 ppm [2, 4] | activity at 0.3 ppm [1, 3] | activity at 0.3 ppm [2, 4] | other results
CCOC(=O)C(C)OC(=O)c1cc(Oc2ccc(C(F)(F)F)cc2Cl)ccc1[N+](=O)[O-] (stereo not drawn) [Structure 3] | 114% | 9.94% |  |  | 
O=[N+]([O-])c1ccc(Oc2c(Cl)cc(Cl)cc2Cl)cc1 [Structure 7] |  |  |  |  | activity at 30 ppm ([1]; bchH recombinant tobacco, 30 ppm, treated vs untreated leaf pieces, Table 5): 89.3%; activity at 30 ppm ([2]; control recombinant tobacco, 30 ppm, treated vs untreated leaf pieces, Table 5): 8.62%
CCCCCOC(=O)COc1cc(N2C(=O)C3=C(CCCC3)C2=O)c(F)cc1Cl [Structure 10] | 84% | 14.9% |  |  | 
C#CCN1C(=O)COc2cc(F)c(N3C(=O)C4=C(CCCC4)C3=O)cc21 [Structure 11] |  |  | 78.1% | 5.51% | 
C#CCN1C(=O)COc2cc(F)c(-n3c(=O)cc(C(F)(F)F)n(C)c3=O)cc21 [Structure 17] |  |  | 80.4% | 14.3% | 
C#CCOc1cc(-n2nc3n(c2=O)CCCC3)c(Cl)cc1Cl [Structure 23] |  |  |  |  | activity at 3 ppm ([1]; bchH recombinant tobacco, 3.0 ppm, treated vs untreated leaf pieces, Table 5): 106%; activity at 3 ppm ([2]; control recombinant tobacco, 3.0 ppm, treated vs untreated leaf pieces, Table 5): 5.58%
C#CCOc1cc(-n2nc(C(C)(C)C)oc2=O)c(Cl)cc1Cl [Structure 24] | 129% | 5.18% |  |  | 
CC(C)Oc1cc(-n2nc(C(C)(C)C)oc2=O)c(Cl)cc1Cl [Structure 25] | 104% | 16% |  |  | 
CCOC(=O)COc1cc(-n2ncc(C(F)(F)F)c(C)c2=O)c(F)cc1Cl [Structure 27] | 86.8% | 16.8% |  |  | 
C#CCOc1cc(-n2ncc(C(F)(F)F)c(C)c2=O)c(F)cc1Cl [Structure 28] |  |  | 72.2% | 8.79% | 
CCOC(=O)COc1cc(-c2nn(C)c(OC(F)F)c2Cl)c(F)cc1Cl [Structure 30] |  |  |  |  | activity at 3 ppm [1]: 102%; activity at 3 ppm [2]: 4.24%
C#CCN1C(=O)COc2cc(F)c(-c3cnc(C(F)(F)F)n(C)c3=O)cc21 [Structure 35] |  |  | 83.3% | 17.4% | 
